Assay results taken from patent US8658791B2, “2-substituted-6-amino-5-alkyl, alkenyl or alkynyl-4-pyrimidinecarboxylic acids and 6-substituted-4-amino-3-alkyl, alkenyl or alkynyl picolinic acids and their use as herbicides” (Dow AgroSciences, LLC, priority 2007, dated 2014).
Counter-ions that a name gives are not always drawn.

Key:
[1] = system: lambsquarter (Chenopodium album); assay: General postemergence herbicidal activity, CHEAL; assay type: in vivo; conditions: postemergence spray, visual score after 14 days, 0 = no injury, 100 = complete kill; for pest or weed control at 280 g/ha / pest or weed control at 70 g/ha / pest or weed control at 140 g/ha: Chenopodium album, post-emergence, 336 h, read-out: Post-emergent Weed Control CHEAL; for pest or weed control at 280 g/ha: 280 g ai/ha; for pest or weed control at 140 g/ha: 140 g ai/ha
Method: (§1) Seeds or nutlets of the desired test plant species were planted in Sun Gro MetroMix® 306 planting mixture, which typically has a pH of 6.0 to 6.8 and an organic matter content of about 30 percent, in plastic pots with a surface area of 103 square centimeters. When required to ensure good germination and healthy plants, a fungicide treatment and/or other chemical or physical treatment was applied. The plants were grown for 7-21 days in a greenhouse with an approximate 15 hour photoperiod which was maintained at about 23-29° C. during the day and 22-28° C. during the night. Nutrients and water were added on a regular basis and supplemental lighting was provided with overhead metal halide 1000-Watt lamps as necessary. The plants were employed for testing when they reached the first or second true leaf stage.
(§2) A weighed amount, determined by the highest rate to be tested, of each test compound was placed in a 25 mL glass vial and was dissolved in 4 mL of a 97:3 v/v (volume/volume) mixture of acetone and dimethyl sulfoxide (DMSO) to obtain concentrated stock solutions. […] The concentrated stock solutions obtained were diluted with 20 mL of an aqueous mixture containing acetone, water, isopropyl alcohol, DMSO, Atplus 411F crop oil concentrate, and Triton® X-155 surfactant in a 48.5:39:10:1.5:1.0:0.02 v/v ratio to obtain spray solutions containing the highest application rates. Additional application rates were obtained by serial dilution of 12 mL of the high rate solution into a solution containing 2 mL of 97:3 v/v (volume/volume) mixture of acetone and dimethyl sulfoxide (DMSO) and 10 mL of an aqueous mixture containing acetone, water, isopropyl alcohol, DMSO, Atplus 411F crop oil concentrate, and Triton X-155 surfactant in a 48.5:39:10:1.5:1.0:0.02 v/v ratio to obtain 1/2X, 1/4X, 1/8X and 1/16X rates of the high rate. Compound requirements are based upon a 12 mL application volume at a rate of 187 L/ha. Formulated compounds were applied to the plant material with an overhead Mandel track sprayer equipped with a 8002E nozzles calibrated to deliver 187 L/ha over an application area of 0.503 square meters at a spray height of 18 inches (43 cm) above the average plant canopy height. Control plants were sprayed in the same manner with the solvent blank.
(§3) The treated plants and control plants were placed in a greenhouse as described above and watered by sub-irrigation to prevent wash-off of the test compounds. After 14 days, the condition of the test plants as compared with that of the untreated plants was determined visually and scored on a scale of 0 to 100 percent where 0 corresponds to no injury and 100 corresponds to complete kill.

[2] = system: velvetleaf (Abutilon theophrasti); assay: General postemergence herbicidal activity, ABUTH; assay type: in vivo; conditions: postemergence spray, visual score after 14 days, 0 = no injury, 100 = complete kill; for pest or weed control at 280 g/ha / pest or weed control at 70 g/ha / pest or weed control at 140 g/ha: Abutilon theophrasti, post-emergence, 336 h, read-out: Post-emergent Weed Control ABUTH; for pest or weed control at 280 g/ha: 280 g ai/ha; for pest or weed control at 140 g/ha: 140 g ai/ha
Method: as §1, §2, §3

[3] = system: wild poinsettia (Euphorbia heterophylla); assay: General postemergence herbicidal activity, EPHHL; assay type: in vivo; conditions: postemergence spray, visual score after 14 days, 0 = no injury, 100 = complete kill; for pest or weed control at 280 g/ha / pest or weed control at 70 g/ha / pest or weed control at 140 g/ha: Euphorbia heterophylla, post-emergence, 336 h, read-out: Post-emergent Weed Control EPHHL; for pest or weed control at 280 g/ha: 280 g ai/ha; for pest or weed control at 140 g/ha: 140 g ai/ha
Method: as §1, §2, §3

[4] = system: barnyardgrass (Echinochloa crus-galli); assay: General postemergence herbicidal activity, ECHCG; assay type: in vivo; conditions: postemergence spray, visual score after 14 days, 0 = no injury, 100 = complete kill; for pest or weed control at 280 g/ha / pest or weed control at 70 g/ha / pest or weed control at 140 g/ha: Echinochloa crus-galli, post-emergence, 336 h, read-out: Post-emergent Weed Control ECHCG; for pest or weed control at 280 g/ha: 280 g ai/ha; for pest or weed control at 140 g/ha: 140 g ai/ha
Method: as §1, §2, §3

[5] = system: rice (Oryza sativa); assay: General postemergence herbicidal activity, ORYSA; assay type: in vivo; conditions: postemergence spray, visual score after 14 days, 0 = no injury, 100 = complete kill; for plant injury at 280 g/ha / plant injury at 70 g/ha / plant injury at 140 g/ha: Oryza sativa, post-emergence, 336 h, read-out: Post-emergent Weed Control ORYSA; for plant injury at 280 g/ha: 280 g ai/ha; for plant injury at 140 g/ha: 140 g ai/ha
Method: as §1, §2, §3

## C=Cc1c(N)nc(-c2ccc(Cl)cc2)nc1C(=O)OC [Compound 6, 6-Amino-2-(4-chlorophenyl)-5-vinylpyrimidine-4-carboxylic acid methyl ester]
[1]
  pest or weed control at 280 g/ha: 90%
[2]
  pest or weed control at 280 g/ha: 100%
[3]
  pest or weed control at 280 g/ha: 70%
[4]
  pest or weed control at 280 g/ha: 80%
[5]
  plant injury at 280 g/ha: 0%
other
  melting point: 164 to 167 °C

## C=Cc1c(N)nc(-c2ccc(Cl)c(OC)c2)nc1C(=O)OC [Compound 7, 6-Amino-2-(4-chloro-3-methoxyphenyl)-5-vinylpyrimidine-4-carboxylic acid methyl ester]
[1]
  pest or weed control at 280 g/ha: 95%
[2]
  pest or weed control at 280 g/ha: 60%
[3]
  pest or weed control at 280 g/ha: 70%
[4]
  pest or weed control at 280 g/ha: 0%
[5]
  plant injury at 280 g/ha: 0%
other
  melting point: 144 to 148 °C

## C=Cc1c(N)nc(-c2cc(OC)c(Cl)cc2F)nc1C(=O)OC [Compound 8, 6-Amino-2-(4-chloro-2-fluoro-5-methoxyphenyl)-5-vinylpyrimidine-4-carboxylic acid methyl ester]
[1]
  pest or weed control at 280 g/ha: 100%
[2]
  pest or weed control at 280 g/ha: 100%
[3]
  pest or weed control at 280 g/ha: 50%
[4]
  pest or weed control at 280 g/ha: 100%
[5]
  plant injury at 280 g/ha: 0%
other
  melting point: 161 to 164 °C

## C/C=C\c1c(N)nc(-c2ccc(Cl)c(OC)c2F)nc1C(=O)OC [Compound 23, 6-Amino-2-(4-chloro-2-fluoro-3-methoxyphenyl)-5-((Z)-propenyl)pyrimidine-4-carboxylic acid methyl ester]
[1]; 70 g ai/ha
  pest or weed control at 70 g/ha: 95%
[2]; 70 g ai/ha
  pest or weed control at 70 g/ha: 85%
[3]; 70 g ai/ha
  pest or weed control at 70 g/ha: 100%
[4]; 70 g ai/ha
  pest or weed control at 70 g/ha: 95%
[5]; 70 g ai/ha
  plant injury at 70 g/ha: 10%
other
  melting point: 91 to 93 °C

## COc1c(Cl)ccc(-c2nc(N)c(C(C)OC)c(C(=O)O)n2)c1F (stereo not drawn) [Compound 40, 6-Amino-2-(4-chloro-2-fluoro-3-methoxyphenyl)-5-(1-methoxyethyl)pyrimidine-4-carboxylic acid]
[1]
  pest or weed control at 280 g/ha: 100%
[2]
  pest or weed control at 280 g/ha: 85%
[3]
  pest or weed control at 280 g/ha: 100%
[4]
  pest or weed control at 280 g/ha: 90%
[5]
  plant injury at 280 g/ha: 35%
other
  melting point: 165 to 167 °C

## C=Cc1c(N)nc(-c2ccc(Cl)c(OC)c2F)nc1C(=O)O [Compound 41, 6-Amino-2-(4-chloro-2-fluoro-3-methoxyphenyl)-5-vinylpyrimidine-4-carboxylic acid]
[1]; 70 g ai/ha
  pest or weed control at 70 g/ha: 100%
[2]; 70 g ai/ha
  pest or weed control at 70 g/ha: 100%
[3]; 70 g ai/ha
  pest or weed control at 70 g/ha: 100%
[4]; 70 g ai/ha
  pest or weed control at 70 g/ha: 100%
[5]; 70 g ai/ha
  plant injury at 70 g/ha: 65%
other
  melting point: 167 to 168 °C

## C=Cc1c(N)nc(-c2ccc(Cl)c(F)c2F)nc1C(=O)O [Compound 44, 6-amino-2-(4-chloro-2,3-difluorophenyl)-5-vinylpyrimidine-4-carboxylic acid]
[1]; 70 g ai/ha
  pest or weed control at 70 g/ha: 100%
[2]; 70 g ai/ha
  pest or weed control at 70 g/ha: 100%
[3]; 70 g ai/ha
  pest or weed control at 70 g/ha: 100%
[4]; 70 g ai/ha
  pest or weed control at 70 g/ha: 100%
[5]; 70 g ai/ha
  plant injury at 70 g/ha: 15%
other
  melting point: 170 to 172 °C

## C=Cc1c(N)nc(-c2cc(F)c(Cl)cc2F)nc1C(=O)O [Compound 46, 6-Amino-2-(4-chloro-2,5-difluorophenyl)-5-vinylpyrimidine-4-carboxylic acid]
[1]
  pest or weed control at 140 g/ha: 100%
[2]
  pest or weed control at 140 g/ha: 90%
[3]
  pest or weed control at 140 g/ha: 95%
[4]
  pest or weed control at 140 g/ha: 90%
[5]
  plant injury at 140 g/ha: 40%
other
  melting point: 81 to 83 °C

## C=Cc1c(N)nc(-c2ccc(Cl)c(N(C)C)c2F)nc1C(=O)O [Compound 51, 6-Amino-2-(4-chloro-3-dimethylamino-2-fluorophenyl)-5-vinylpyrimidine-4-carboxylic acid]
[1]
  pest or weed control at 140 g/ha: 100%
[2]
  pest or weed control at 140 g/ha: 100%
[3]
  pest or weed control at 140 g/ha: 90%
[4]
  pest or weed control at 140 g/ha: 95%
[5]
  plant injury at 140 g/ha: 60%

## C=C(F)c1c(N)nc(-c2ccc(Cl)c(OC)c2F)nc1C(=O)O [Compound 52, 6-Amino-2-(4-chloro-2-fluoro-3-methoxyphenyl)-5-(1-fluorovinyl)pyrimidine-4-carboxylic acid]
[1]
  pest or weed control at 140 g/ha: 95%
[2]
  pest or weed control at 140 g/ha: 95%
[3]
  pest or weed control at 140 g/ha: 100%
[4]
  pest or weed control at 140 g/ha: 90%
[5]
  plant injury at 140 g/ha: 65%

## CCc1c(N)nc(-c2ccc(Cl)c(OC)c2F)nc1C(=O)O [Compound 54, 6-Amino-2-(4-chloro-2-fluoro-3-methoxyphenyl)-5-ethylpyrimidine-4-carboxylic acid]
[1]
  pest or weed control at 280 g/ha: 100%
[2]
  pest or weed control at 280 g/ha: 90%
[3]
  pest or weed control at 280 g/ha: 100%
[4]
  pest or weed control at 280 g/ha: 90%
[5]
  plant injury at 280 g/ha: 0%

## C#Cc1c(N)nc(-c2ccc(Cl)c(OC)c2F)nc1C(=O)O [Compound 56, 6-Amino-2-(4-chloro-2-fluoro-3-methoxyphenyl)-5-ethynylpyrimidine-4-carboxylic acid]
[1]
  pest or weed control at 140 g/ha: 95%
[2]
  pest or weed control at 140 g/ha: 80%
[3]
  pest or weed control at 140 g/ha: 90%
[4]
  pest or weed control at 140 g/ha: 75%
[5]
  plant injury at 140 g/ha: 0%

## COc1c(Cl)ccc(-c2cc(N)c(C)c(C(=O)O)n2)c1F [Compound 58, 4-Amino-6-(4-chloro-2-fluoro-3-methoxyphenyl)-3-methylpyridine-2-carboxylic acid]
[1]
  pest or weed control at 280 g/ha: 50%
[2]
  pest or weed control at 280 g/ha: 90%
[3]
  pest or weed control at 280 g/ha: 90%
[4]
  pest or weed control at 280 g/ha: 50%
[5]
  plant injury at 280 g/ha: 0%

## C=Cc1c(N)nc(-c2ccc(Cl)c(OC)c2F)nc1C(=O)O [Compound 63, triethylamine salt of 6-amino-2-(4-chloro-2-fluoro-3-methoxyphenyl)-5-vinylpyrimidine-4-carboxylic acid]
[1]; 70 g ai/ha
  Post-emergent Weed Control CHEAL: 100%
[2]; 70 g ai/ha
  Post-emergent Weed Control ABUTH: 95%
[3]; 70 g ai/ha
  Post-emergent Weed Control EPHHL: 100%
[4]; 70 g ai/ha
  Post-emergent Weed Control ECHCG: 90%
[5]; 70 g ai/ha
  Post-emergent Weed Control ORYSA: 75%
